Assay results taken from ChEMBL document CHEMBL4507305, “Data for DCP probe TP-024” (2021).

Assays:
[1] = biological target: Receptor tyrosine-protein kinase erbB-2 (Homo sapiens) (UniProt P04626); details: Compound concentration 1000.0 nM
[2] = tested on: ALK tyrosine kinase receptor (Homo sapiens), Q9UM73 [C1156Y]; details: Compound concentration 1000.0 nM
[3] = biological target: Serine/threonine-protein kinase Nek1 (Homo sapiens) (UniProt Q96PY6); details: Compound concentration 1000.0 nM
[4] = biological target: Serine/threonine-protein kinase 25 (Homo sapiens) (UniProt O00506); details: Compound concentration 1000.0 nM
[5] = biological target: Calcium/calmodulin-dependent protein kinase type 1B (Homo sapiens) (UniProt Q6P2M8); details: Compound concentration 1000.0 nM
[6] = biological target: Homeodomain-interacting protein kinase 4 (Homo sapiens) (UniProt Q8NE63); details: Compound concentration 1000.0 nM
[7] = biological target: Calcium/calmodulin-dependent protein kinase type 1D (Homo sapiens) (UniProt Q8IU85); details: Compound concentration 1000.0 nM
[8] = tested on: Epidermal growth factor receptor (Homo sapiens), P00533 [L858R]; details: Compound concentration 1000.0 nM
[9] = biological target: Receptor-interacting serine/threonine-protein kinase 2 (Homo sapiens) (UniProt O43353); details: Compound concentration 1000.0 nM
[10] = biological target: 5-hydroxytryptamine receptor 2C (Homo sapiens) (UniProt P28335); details: Compound concentration 10.0 uM
[11] = biological target: Serine/threonine-protein kinase TBK1 (Homo sapiens) (UniProt Q9UHD2); details: Compound concentration 1000.0 nM
[12] = biological target: Bone morphogenetic protein receptor type-2 (Homo sapiens) (UniProt Q13873); details: Compound concentration 1000.0 nM
[13] = biological target: Serine/threonine-protein kinase RIO1 (Homo sapiens) (UniProt Q9BRS2); details: Compound concentration 1000.0 nM
[14] = biological target: Serine/threonine-protein kinase RIO2 (Homo sapiens) (UniProt Q9BVS4); details: Compound concentration 1000.0 nM
[15] = biological target: cAMP-dependent protein kinase catalytic subunit PRKX (Homo sapiens) (UniProt P51817); details: Compound concentration 1000.0 nM
[16] = biological target: Megakaryocyte-associated tyrosine-protein kinase (Homo sapiens) (UniProt P42679); details: Compound concentration 1000.0 nM
[17] = biological target: Phosphatidylinositol 4-phosphate 3-kinase C2 domain-containing subunit beta (Homo sapiens) (UniProt O00750); details: Compound concentration 1000.0 nM
[18] = biological target: Dual specificity mitogen-activated protein kinase kinase 7 (Homo sapiens) (UniProt O14733); details: Compound concentration 1000.0 nM
[19] = biological target: Serine/threonine-protein kinase LATS1 (Homo sapiens) (UniProt O95835); details: Compound concentration 1000.0 nM
[20] = tested on: eIF-2-alpha kinase GCN2 (Homo sapiens), Q9P2K8 [S808G]; details: Compound concentration 1000.0 nM
[21] = biological target: Proto-oncogene tyrosine-protein kinase Src (Homo sapiens) (UniProt P12931); details: Compound concentration 1000.0 nM
[22] = biological target: Cyclin-dependent kinase 2 homolog (Plasmodium falciparum (isolate 3D7)) (UniProt P61075); details: Compound concentration 1000.0 nM
[23] = biological target: 5-hydroxytryptamine receptor 1B (Homo sapiens) (UniProt P28222); details: Compound concentration 10.0 uM
[24] = biological target: Interleukin-1 receptor-associated kinase 3 (Homo sapiens) (UniProt Q9Y616); details: Compound concentration 1000.0 nM
[25] = biological target: Mitogen-activated protein kinase 15 (Homo sapiens) (UniProt Q8TD08); details: Compound concentration 1000.0 nM
[26] = biological target: NUAK family SNF1-like kinase 2 (Homo sapiens) (UniProt Q9H093); details: Compound concentration 1000.0 nM
[27] = biological target: Histamine H1 receptor (Homo sapiens) (UniProt P35367); details: Compound concentration 10.0 uM
[28] = biological target: cGMP-dependent protein kinase 2 (Homo sapiens) (UniProt Q13237); details: Compound concentration 1000.0 nM
[29] = biological target: Mitogen-activated protein kinase kinase kinase kinase 2 (Homo sapiens) (UniProt Q12851); details: Compound concentration 1000.0 nM
[30] = biological target: Casein kinase I isoform gamma-1 (Homo sapiens) (UniProt Q9HCP0); details: Compound concentration 1000.0 nM
[31] = biological target: Ephrin type-A receptor 6 (Homo sapiens) (UniProt Q9UF33); details: Compound concentration 1000.0 nM
[32] = biological target: RAC-alpha serine/threonine-protein kinase (Homo sapiens) (UniProt P31749); details: Compound concentration 1000.0 nM
[33] = tested on: Phosphatidylinositol 4,5-bisphosphate 3-kinase catalytic subunit alpha isoform (Homo sapiens), P42336 [C420R]; details: Compound concentration 1000.0 nM
[34] = biological target: Hormonally up-regulated neu tumor-associated kinase (Homo sapiens) (UniProt P57058); details: Compound concentration 1000.0 nM
[35] = biological target: Casein kinase II subunit alpha' (Homo sapiens) (UniProt P19784); details: Compound concentration 1000.0 nM
[36] = biological target: Tyrosine-protein kinase ABL1 (Homo sapiens) (UniProt P00519); details: Compound concentration 1000.0 nM
[37] = biological target: Non-receptor tyrosine-protein kinase TYK2 (Homo sapiens) (UniProt P29597); details: Compound concentration 1000.0 nM
[38] = biological target: Serine/threonine-protein kinase BRSK2 (Homo sapiens) (UniProt Q8IWQ3); details: Compound concentration 1000.0 nM
[39] = biological target: Cyclin-dependent kinase 13 (Homo sapiens) (UniProt Q14004); details: Compound concentration 1000.0 nM
[40] = biological target: Phosphorylase b kinase regulatory subunit alpha, liver isoform (Homo sapiens) (UniProt P46019); details: Compound concentration 1000.0 nM
[41] = biological target: Calcium/calmodulin-dependent protein kinase type IV (Homo sapiens) (UniProt Q16566); details: Compound concentration 1000.0 nM
[42] = biological target: Serine/threonine-protein kinase ICK (Homo sapiens) (UniProt Q9UPZ9); details: Compound concentration 1000.0 nM
[43] = biological target: Phosphatidylinositol 4,5-bisphosphate 3-kinase catalytic subunit beta isoform (Homo sapiens) (UniProt P42338); details: Compound concentration 1000.0 nM
[44] = biological target: Serine/threonine-protein kinase 32C (Homo sapiens) (UniProt Q86UX6); details: Compound concentration 1000.0 nM

Serine/threonine-protein kinase RIO1 (Homo sapiens), sequence (Q9BRS2 whole entry): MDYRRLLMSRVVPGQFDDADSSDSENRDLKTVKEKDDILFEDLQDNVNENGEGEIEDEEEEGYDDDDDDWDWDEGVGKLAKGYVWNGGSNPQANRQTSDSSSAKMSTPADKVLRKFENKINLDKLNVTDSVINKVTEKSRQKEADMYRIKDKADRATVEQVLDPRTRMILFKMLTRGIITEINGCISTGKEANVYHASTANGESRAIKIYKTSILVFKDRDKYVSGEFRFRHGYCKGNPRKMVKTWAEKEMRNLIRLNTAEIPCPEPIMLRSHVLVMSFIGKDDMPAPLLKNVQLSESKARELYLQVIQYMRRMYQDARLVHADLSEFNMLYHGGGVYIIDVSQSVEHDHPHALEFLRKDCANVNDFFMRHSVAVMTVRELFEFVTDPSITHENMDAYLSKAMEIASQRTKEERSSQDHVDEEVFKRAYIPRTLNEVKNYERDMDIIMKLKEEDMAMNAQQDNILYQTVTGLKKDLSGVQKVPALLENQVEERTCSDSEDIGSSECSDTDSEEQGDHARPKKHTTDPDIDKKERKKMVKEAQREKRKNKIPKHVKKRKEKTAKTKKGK
ALK tyrosine kinase receptor (Homo sapiens), Q9UM73 [C1156Y], sequence (Q9UM73 whole entry C1156Y, looked up): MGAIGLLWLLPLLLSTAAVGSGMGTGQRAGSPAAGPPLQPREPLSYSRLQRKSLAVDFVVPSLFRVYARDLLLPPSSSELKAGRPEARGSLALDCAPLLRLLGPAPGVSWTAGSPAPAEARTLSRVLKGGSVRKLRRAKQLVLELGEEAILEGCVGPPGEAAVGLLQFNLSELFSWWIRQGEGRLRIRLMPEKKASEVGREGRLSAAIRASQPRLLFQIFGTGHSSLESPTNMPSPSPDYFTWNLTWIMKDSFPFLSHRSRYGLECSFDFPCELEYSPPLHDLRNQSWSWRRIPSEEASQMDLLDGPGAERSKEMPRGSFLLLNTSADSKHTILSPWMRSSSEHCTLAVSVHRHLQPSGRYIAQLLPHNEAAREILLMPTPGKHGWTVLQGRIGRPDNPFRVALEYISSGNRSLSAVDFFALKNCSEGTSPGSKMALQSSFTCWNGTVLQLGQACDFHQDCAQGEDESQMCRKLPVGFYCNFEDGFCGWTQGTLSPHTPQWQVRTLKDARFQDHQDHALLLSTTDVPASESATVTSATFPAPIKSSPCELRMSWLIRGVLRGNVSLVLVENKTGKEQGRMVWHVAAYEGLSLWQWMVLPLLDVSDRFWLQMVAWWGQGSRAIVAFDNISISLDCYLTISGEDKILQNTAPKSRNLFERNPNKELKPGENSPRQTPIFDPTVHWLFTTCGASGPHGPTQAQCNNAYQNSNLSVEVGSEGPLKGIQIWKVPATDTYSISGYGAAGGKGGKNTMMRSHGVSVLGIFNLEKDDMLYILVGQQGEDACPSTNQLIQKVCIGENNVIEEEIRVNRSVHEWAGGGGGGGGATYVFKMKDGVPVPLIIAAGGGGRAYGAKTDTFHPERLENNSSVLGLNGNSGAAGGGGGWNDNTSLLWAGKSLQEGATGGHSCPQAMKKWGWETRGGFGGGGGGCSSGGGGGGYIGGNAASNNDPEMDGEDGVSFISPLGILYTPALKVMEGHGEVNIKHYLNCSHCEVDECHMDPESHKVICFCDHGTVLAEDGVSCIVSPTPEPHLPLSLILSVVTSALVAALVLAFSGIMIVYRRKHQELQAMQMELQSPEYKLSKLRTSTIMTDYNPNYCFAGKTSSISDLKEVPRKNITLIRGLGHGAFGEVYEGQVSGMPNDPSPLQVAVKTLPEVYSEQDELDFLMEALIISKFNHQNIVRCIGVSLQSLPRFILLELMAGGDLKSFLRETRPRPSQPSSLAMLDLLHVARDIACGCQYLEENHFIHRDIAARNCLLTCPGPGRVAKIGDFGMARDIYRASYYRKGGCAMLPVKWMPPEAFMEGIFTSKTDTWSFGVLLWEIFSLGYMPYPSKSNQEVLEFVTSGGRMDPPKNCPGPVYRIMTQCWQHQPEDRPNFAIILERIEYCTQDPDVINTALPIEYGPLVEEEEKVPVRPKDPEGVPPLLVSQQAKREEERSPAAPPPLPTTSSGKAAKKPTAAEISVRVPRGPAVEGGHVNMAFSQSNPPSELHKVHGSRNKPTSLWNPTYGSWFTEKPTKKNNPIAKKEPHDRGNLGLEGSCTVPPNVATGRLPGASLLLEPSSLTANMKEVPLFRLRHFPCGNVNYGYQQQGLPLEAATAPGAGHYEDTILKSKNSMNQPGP
Calcium/calmodulin-dependent protein kinase type 1B (Homo sapiens), sequence (Q6P2M8 whole entry): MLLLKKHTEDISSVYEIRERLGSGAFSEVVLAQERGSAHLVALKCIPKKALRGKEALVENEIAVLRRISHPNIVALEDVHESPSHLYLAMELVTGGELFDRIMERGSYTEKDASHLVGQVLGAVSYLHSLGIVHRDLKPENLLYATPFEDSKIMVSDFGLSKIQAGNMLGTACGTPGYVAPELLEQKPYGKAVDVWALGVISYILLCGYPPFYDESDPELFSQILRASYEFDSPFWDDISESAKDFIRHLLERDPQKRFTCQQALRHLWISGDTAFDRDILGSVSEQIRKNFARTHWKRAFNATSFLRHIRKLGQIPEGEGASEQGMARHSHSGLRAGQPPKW
5-hydroxytryptamine receptor 1B (Homo sapiens), sequence (P28222 whole entry): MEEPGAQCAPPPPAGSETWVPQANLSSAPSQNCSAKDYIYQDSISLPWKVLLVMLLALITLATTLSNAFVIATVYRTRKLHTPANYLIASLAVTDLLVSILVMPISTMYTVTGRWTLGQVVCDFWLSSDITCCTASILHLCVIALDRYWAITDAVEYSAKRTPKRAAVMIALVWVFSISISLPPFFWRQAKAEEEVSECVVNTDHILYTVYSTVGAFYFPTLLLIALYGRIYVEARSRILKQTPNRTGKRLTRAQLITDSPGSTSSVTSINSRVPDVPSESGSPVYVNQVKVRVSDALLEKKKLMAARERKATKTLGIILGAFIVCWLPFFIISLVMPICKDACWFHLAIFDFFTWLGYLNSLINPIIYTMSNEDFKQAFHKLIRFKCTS
Serine/threonine-protein kinase TBK1 (Homo sapiens), sequence (Q9UHD2 whole entry): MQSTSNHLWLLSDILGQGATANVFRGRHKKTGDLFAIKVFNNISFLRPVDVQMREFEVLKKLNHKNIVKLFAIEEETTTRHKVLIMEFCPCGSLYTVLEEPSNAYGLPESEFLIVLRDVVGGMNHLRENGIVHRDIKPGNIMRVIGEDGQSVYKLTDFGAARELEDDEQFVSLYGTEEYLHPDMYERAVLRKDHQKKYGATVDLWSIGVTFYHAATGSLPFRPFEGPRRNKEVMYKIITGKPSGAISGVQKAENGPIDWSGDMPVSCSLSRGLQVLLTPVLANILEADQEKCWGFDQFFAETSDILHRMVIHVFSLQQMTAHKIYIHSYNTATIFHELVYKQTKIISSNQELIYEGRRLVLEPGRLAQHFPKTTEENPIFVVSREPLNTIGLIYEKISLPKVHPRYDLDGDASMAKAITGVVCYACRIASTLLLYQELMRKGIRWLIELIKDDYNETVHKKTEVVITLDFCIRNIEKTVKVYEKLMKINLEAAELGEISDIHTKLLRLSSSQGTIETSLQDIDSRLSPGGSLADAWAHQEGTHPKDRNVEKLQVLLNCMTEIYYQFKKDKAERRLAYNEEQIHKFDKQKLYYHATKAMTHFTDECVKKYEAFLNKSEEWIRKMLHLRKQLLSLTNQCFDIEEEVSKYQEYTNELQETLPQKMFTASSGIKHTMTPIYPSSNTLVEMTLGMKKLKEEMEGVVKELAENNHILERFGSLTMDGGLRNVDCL
RAC-alpha serine/threonine-protein kinase (Homo sapiens), sequence (P31749 whole entry, canonical isoform): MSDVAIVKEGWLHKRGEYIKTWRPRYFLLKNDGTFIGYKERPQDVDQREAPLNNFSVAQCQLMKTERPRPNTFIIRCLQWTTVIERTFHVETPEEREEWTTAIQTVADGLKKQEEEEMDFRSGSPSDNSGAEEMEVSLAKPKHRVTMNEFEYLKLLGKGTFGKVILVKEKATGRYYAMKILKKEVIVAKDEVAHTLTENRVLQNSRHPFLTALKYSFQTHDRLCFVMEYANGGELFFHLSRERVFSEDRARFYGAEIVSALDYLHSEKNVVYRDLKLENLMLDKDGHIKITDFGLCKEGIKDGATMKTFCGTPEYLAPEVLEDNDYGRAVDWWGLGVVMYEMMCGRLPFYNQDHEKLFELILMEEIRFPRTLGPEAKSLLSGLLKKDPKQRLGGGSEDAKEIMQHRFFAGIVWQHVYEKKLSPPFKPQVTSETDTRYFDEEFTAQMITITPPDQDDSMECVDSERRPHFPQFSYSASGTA
Receptor-interacting serine/threonine-protein kinase 2 (Homo sapiens), sequence (O43353 whole entry): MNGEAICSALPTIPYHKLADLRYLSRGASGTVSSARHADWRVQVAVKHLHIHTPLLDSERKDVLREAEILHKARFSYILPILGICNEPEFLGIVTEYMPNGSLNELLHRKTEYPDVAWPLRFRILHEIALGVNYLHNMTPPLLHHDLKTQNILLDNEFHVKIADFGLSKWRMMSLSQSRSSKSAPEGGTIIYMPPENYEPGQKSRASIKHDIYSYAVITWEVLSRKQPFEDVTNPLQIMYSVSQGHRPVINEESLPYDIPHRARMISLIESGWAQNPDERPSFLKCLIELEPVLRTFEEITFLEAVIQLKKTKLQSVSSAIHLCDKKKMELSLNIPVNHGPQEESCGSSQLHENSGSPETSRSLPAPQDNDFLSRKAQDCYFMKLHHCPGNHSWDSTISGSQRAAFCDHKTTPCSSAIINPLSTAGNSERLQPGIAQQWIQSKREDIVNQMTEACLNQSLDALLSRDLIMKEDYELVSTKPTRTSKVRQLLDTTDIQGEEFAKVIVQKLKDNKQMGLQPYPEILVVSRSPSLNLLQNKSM
Cyclin-dependent kinase 2 homolog (Plasmodium falciparum (isolate 3D7)), sequence (P61075 whole entry): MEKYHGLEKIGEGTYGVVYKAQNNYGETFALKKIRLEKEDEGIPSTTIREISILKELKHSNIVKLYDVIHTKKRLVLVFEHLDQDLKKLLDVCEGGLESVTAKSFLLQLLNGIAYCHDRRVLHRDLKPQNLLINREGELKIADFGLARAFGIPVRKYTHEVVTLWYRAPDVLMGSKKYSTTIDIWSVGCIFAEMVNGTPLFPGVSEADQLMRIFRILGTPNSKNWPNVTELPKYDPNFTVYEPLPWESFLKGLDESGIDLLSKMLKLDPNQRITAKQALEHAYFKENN

For Cc1cc(-n2nc(Cc3cc(F)cc(C(F)(F)F)c3)nc2C)ccc1C(N)=O [TP-024], the residual activity [1] was 99%, the residual activity [2] was 100% and the residual activity [3] was 54%. The residual activity [4] was 89%, the residual activity [5] was 100% and the residual activity [6] was 100%. The residual activity [7] was 96%, the residual activity [8] was 100% and the residual activity [9] was 100%. It also gave an inhibition [10] of -5.34%, a residual activity [11] of 89% and a residual activity [12] of 100%. It also gave a residual activity [13] of 85%, a residual activity [14] of 100% and a residual activity [15] of 100%. It also gave a residual activity [16] of 100%, a residual activity [17] of 87% and a residual activity [18] of 100%. The residual activity [19] was 100%, the residual activity [20] was 100% and the residual activity [21] was 95%. The residual activity [22] was 100%, the inhibition [23] was 13.8% and the residual activity [24] was 100%. The residual activity [25] was 95%, the residual activity [26] was 100% and the inhibition [27] was 8.06%. For the same compound, the residual activity [28] was 86%, the residual activity [29] was 100% and the residual activity [30] was 100%. For the same compound, the residual activity [31] was 100%, the residual activity [32] was 94% and the residual activity [33] was 93%. It also gave a residual activity [34] of 89%, a residual activity [35] of 91% and a residual activity [36] of 97%. The residual activity [37] was 100%, the residual activity [38] was 77% and the residual activity [39] was 100%. It also gave a residual activity [40] of 100%, a residual activity [41] of 100% and a residual activity [42] of 100%. It also gave a residual activity [43] of 85% and a residual activity [44] of 100%.

Cc1nc(Cc2cccc(C(F)(F)F)c2)sc1-c1ccc(C(N)=O)nc1 [TP-024n] showed a residual activity [1] of 100%, a residual activity [2] of 68% and a residual activity [3] of 41%. The residual activity [4] was 88%, the residual activity [5] was 100% and the residual activity [6] was 100%. It also gave a residual activity [7] of 94%, a residual activity [8] of 100% and a residual activity [9] of 100%. For the same compound, the inhibition [10] was 0.93%, the residual activity [11] was 91% and the residual activity [12] was 100%. The residual activity [13] was 94%, the residual activity [14] was 98% and the residual activity [15] was 100%. It also gave a residual activity [16] of 100%, a residual activity [17] of 82% and a residual activity [18] of 100%. It also gave a residual activity [19] of 100%, a residual activity [20] of 100% and a residual activity [21] of 80%. The residual activity [22] was 100%, the inhibition [23] was 7.99% and the residual activity [24] was 100%. The residual activity [25] was 100%, the residual activity [26] was 100% and the inhibition [27] was 9.3%. The residual activity [28] was 84%, the residual activity [29] was 100% and the residual activity [30] was 97%. The residual activity [31] was 96%, the residual activity [32] was 82% and the residual activity [33] was 89%. For the same compound, the residual activity [34] was 90%, the residual activity [35] was 96% and the residual activity [36] was 95%. For the same compound, the residual activity [37] was 100%, the residual activity [38] was 72% and the residual activity [39] was 100%. It also gave a residual activity [40] of 100%, a residual activity [41] of 100% and a residual activity [42] of 100%. The residual activity [43] was 83% and the residual activity [44] was 87%.
